Results: PubChem BioAssay (NCI)
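Briefly, cells in 96-well plates were exposed to five compound concentrations for 48 h, and endpoints were estimated by linear interpolation. At the GI50, growth is halved. At the TGI there is no net growth.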

What was measured:
Test in all cases: growth of human tumour cells (NCI), 48 h
[1] = test system: IGROV1 ovarian
[2] = test system: KM12 colon
[3] = test system: NCI-H522 lung
[4] = test system: OVCAR-3 ovarian
[5] = test system: OVCAR-4 ovarian
[6] = test system: SK-MEL-2 melanoma
[7] = test system: SR leukemia
[8] = test system: UACC-257 melanoma
[9] = test system: UO-31 renal
[10] = test system: RXF 393 renal

Compound: CC1(C)Cc2c(Br)c(Br)c(Br)c(OCC(O)CN3CCN(c4ccccn4)CC3)c2O1 (stereo not given)
- GI50 [1]: 10.7 µM
- TGI [1]: 26 µM
- GI50 [2]: 7.78 µM
- TGI [2]: 24.5 µM
- GI50 [3]: 16.8 µM
- TGI [3]: 35.5 µM
- GI50 [4]: 9.54 µM
- TGI [4]: 23.4 µM
- GI50 [5]: 12.1 µM
- TGI [5]: 26.7 µM
- GI50 [6]: 4.95 µM
- TGI [6]: 19.2 µM
- GI50 [7]: 4.38 µM
- TGI [7]: 24.7 µM
- GI50 [8]: 16.6 µM
- TGI [8]: 39.7 µM
- GI50 [9]: 11 µM
- TGI [9]: 24 µM

Compound: COc1cnc2c(c1)C(=O)c1c-2n(CCCN2CCC(O)CC2)c(=O)c2cc(Cl)ccc12
- GI50 [2]: 1.43 µM
- TGI [2]: 3.64 µM
- GI50 [3]: 0.11 µM
- TGI [3]: 2.02 µM
- GI50 [4]: 1.4 µM
- TGI [4]: 3.03 µM
- GI50 [5]: 1.34 µM
- TGI [5]: 3.08 µM
- GI50 [10]: 0.347 µM
- TGI [10]: 1.72 µM
- GI50 [6]: 17.4 µM
- TGI [6]: 33.4 µM
- GI50 [7]: 0.0888 µM
- TGI [7]: 13.2 µM
- GI50 [8]: 12.2 µM
- TGI [8]: 26.2 µM
- GI50 [9]: 0.271 µM
- TGI [9]: 1.59 µM

Compound: COc1cc2oc3c(c(=O)c2c(O)c1/C=C/C(C)C)C(C=C(C)C)Oc1cc(O)ccc1-3 (stereo not given)
- TGI [1]: 27.7 µM
- TGI [2]: 34.5 µM
- TGI [3]: 32.3 µM
- TGI [4]: 28.4 µM
- TGI [5]: 31.5 µM
- TGI [6]: 29.9 µM
- TGI [8]: 32.6 µM
- TGI [9]: 25.2 µM

Compound: COc1ccc(NC(=O)CC(=O)n2nc(C)c(N=Nc3ccccc3C(=O)O)c2C)cc1
- TGI [1]: > 100 µM
- TGI [2]: > 100 µM
- TGI [3]: > 100 µM
- TGI [4]: > 100 µM
- TGI [5]: > 100 µM
- TGI [6]: > 100 µM
- TGI [8]: > 100 µM
- TGI [9]: > 100 µM

Compound: O=[N+]([O-])c1cc2no[n+]([O-])c2cc1N1CCCCC1
- TGI [1]: 8.83 µM
- TGI [2]: 30.5 µM
- TGI [5]: 8.37 µM
- TGI [10]: 3.29 µM
- TGI [6]: 30.5 µM
- TGI [7]: 12.2 µM
- TGI [8]: > 36.1 µM
- TGI [9]: 6.16 µM

Compound: COc1cc2ccnc3c(=C(SC)SC)c(=O)c(c1OC)c23
- TGI [1]: 47.5 µM
- TGI [2]: 53.5 µM
- TGI [3]: 5.18 µM
- TGI [4]: 28.4 µM
- TGI [5]: 30.2 µM
- TGI [10]: 26.6 µM
- TGI [6]: 38.3 µM
- TGI [8]: 30.8 µM
- TGI [9]: 29.3 µM

Compound: CC(=O)c1ccc(NC(=O)COC(=O)c2cccc3c(=O)c4ccccc4[nH]c23)cc1
- TGI [1]: > 100 µM
- TGI [2]: > 100 µM
- TGI [3]: > 100 µM
- TGI [4]: 69.4 µM
- TGI [5]: 25.9 µM
- TGI [10]: > 100 µM
- TGI [7]: > 100 µM
- TGI [8]: > 100 µM
- TGI [9]: > 100 µM

Compound: O=C1OC(=O)C2C3C=CC(C12)C1C2C=CC2C31 (stereo not given)
- TGI [1]: > 100 µM
- TGI [2]: > 100 µM
- TGI [3]: > 100 µM
- TGI [5]: > 100 µM
- TGI [10]: > 100 µM
- TGI [6]: > 100 µM
- TGI [7]: > 100 µM
- TGI [8]: > 100 µM

Compound: COc1ccc(-c2csc(NC(=O)CN3CCN(c4cc5c(cc4F)c(=O)c(C(=O)O)cn5C4CC4)CC3)n2)cc1
- GI50 [1]: 7 µM
- TGI [1]: > 100 µM
- GI50 [2]: 3.37 µM
- TGI [2]: > 100 µM
- GI50 [3]: 3.48 µM
- TGI [3]: > 100 µM
- GI50 [4]: 3.86 µM
- TGI [4]: > 100 µM
- GI50 [10]: 4.97 µM
- TGI [10]: 27.7 µM
- GI50 [6]: 2.58 µM
- TGI [6]: 8.28 µM
- GI50 [7]: 2.96 µM
- TGI [7]: > 100 µM
- GI50 [9]: 3.37 µM
- TGI [9]: > 100 µM

Compound: O=c1cccc(-c2cccc(=O)[nH]2)[nH]1
- TGI [1]: > 100 µM
- TGI [2]: > 100 µM
- TGI [4]: > 100 µM
- TGI [10]: > 100 µM
- TGI [8]: > 100 µM
- TGI [9]: > 100 µM

Compound: Cl.Fc1c[c-]c(-c2ccccn2)c(F)c1.[Pt].c1ccc([PH+](C[PH+](c2ccccc2)c2ccccc2)c2ccccc2)cc1
- GI50 [2]: 0.276 µM
- TGI [2]: 1 µM
- GI50 [4]: 0.184 µM
- TGI [4]: 0.442 µM
- GI50 [5]: 0.267 µM
- TGI [5]: 0.927 µM
- GI50 [10]: 0.251 µM
- TGI [10]: 0.741 µM
- GI50 [8]: 0.269 µM
- TGI [8]: 0.829 µM

Compound: Cc1nc2cc(Nc3nc(Nc4ccc(F)cc4)nc(N4CCOCC4)n3)ccc2n1Cc1ccccc1
- GI50 [1]: 2.3 µM
- TGI [1]: 5.87 µM
- GI50 [2]: 3.77 µM
- TGI [2]: 14.2 µM
- GI50 [3]: 4.1 µM
- TGI [3]: 18.9 µM
- GI50 [4]: 2.75 µM
- TGI [4]: 7.14 µM
- GI50 [5]: 4.47 µM
- TGI [5]: 41.8 µM
- GI50 [6]: 2.49 µM
- TGI [6]: 4.94 µM
- GI50 [7]: 2.4 µM
- TGI [7]: 7.38 µM
- GI50 [8]: 2.11 µM
- TGI [8]: 4.42 µM
- GI50 [9]: 3.24 µM
- TGI [9]: 14.6 µM

Compound: Cc1ccc(S(=O)(=O)N/N=C/C(C)C)cc1
- TGI [1]: > 100 µM
- TGI [2]: > 100 µM
- TGI [4]: > 100 µM
- TGI [5]: > 100 µM
- TGI [10]: > 100 µM
- TGI [6]: > 100 µM
- TGI [8]: > 100 µM
- TGI [9]: > 100 µM

Compound: N#CC1=C(O)NC(O)=C(C#N)C1c1ccc(C2C(C#N)=C(O)NC(O)=C2C#N)cc1
- TGI [1]: > 100 µM
- TGI [2]: > 100 µM
- TGI [3]: 43.6 µM
- TGI [4]: > 100 µM
- TGI [5]: > 100 µM
- TGI [10]: > 100 µM
- TGI [6]: > 100 µM
- TGI [8]: > 100 µM
- TGI [9]: > 100 µM

Compound: OCCN(CCO)c1cccc(N(CCO)CCO)n1
- TGI [2]: > 100 µM
- TGI [3]: > 100 µM
- TGI [4]: > 100 µM
- TGI [5]: > 100 µM
- TGI [10]: > 100 µM
- TGI [6]: > 100 µM
- TGI [7]: > 100 µM
- TGI [8]: > 100 µM
- TGI [9]: > 100 µM

Compound: Cc1ccc(NC(=O)CCc2n[nH]c(=S)o2)cc1
- TGI [1]: > 100 µM
- TGI [2]: > 100 µM
- TGI [3]: > 100 µM
- TGI [4]: > 100 µM
- TGI [5]: > 100 µM
- TGI [10]: > 100 µM
- TGI [7]: > 100 µM
- TGI [8]: > 100 µM
- TGI [9]: > 100 µM

Compound: O=Cc1ccc(-c2ccc(-c3nc4ccccc4s3)cc2)s1
- GI50 [1]: 55.8 µM
- TGI [1]: > 100 µM
- GI50 [2]: 38.4 µM
- TGI [2]: > 100 µM
- GI50 [3]: 69.1 µM
- TGI [3]: > 100 µM
- GI50 [4]: 27.2 µM
- TGI [4]: 98.3 µM
- GI50 [5]: > 100 µM
- TGI [5]: > 100 µM
- GI50 [10]: > 100 µM
- TGI [10]: > 100 µM
- GI50 [6]: > 100 µM
- TGI [6]: > 100 µM
- GI50 [8]: > 100 µM
- TGI [8]: > 100 µM
- GI50 [9]: 42.7 µM
- TGI [9]: > 100 µM

Compound: CC1SC2(CCCCC2)N(NC(=O)c2[nH]c3ccc(Br)cc3c2-c2ccccc2)C1=O (stereo not given)
- GI50 [1]: 4.02 µM
- TGI [1]: 28.4 µM
- GI50 [2]: 16.1 µM
- TGI [2]: > 100 µM
- GI50 [3]: 6.78 µM
- TGI [3]: > 100 µM
- GI50 [4]: 3.24 µM
- TGI [4]: 20.9 µM
- GI50 [5]: 13.2 µM
- TGI [5]: 90.7 µM
- GI50 [10]: 13.7 µM
- TGI [10]: 69.2 µM
- GI50 [6]: > 100 µM
- TGI [6]: > 100 µM
- GI50 [8]: 23.6 µM
- TGI [8]: > 100 µM
- GI50 [9]: 21.6 µM
- TGI [9]: > 100 µM

Compound: CCC(C)C(=O)OCC(=O)c1ccc(-c2ccccc2)cc1 (stereo not given)
- TGI [1]: > 100 µM
- TGI [2]: > 100 µM
- TGI [3]: 74.9 µM
- TGI [4]: > 100 µM
- TGI [6]: > 100 µM
- TGI [7]: > 100 µM
- TGI [8]: 87.4 µM
- TGI [9]: > 100 µM
